Each structure is given as a SMILES string.

The experiment has as its target T1, human mPGES-1 (Homo sapiens, UniProt O14684).
T1 sequence (O14684 1-152): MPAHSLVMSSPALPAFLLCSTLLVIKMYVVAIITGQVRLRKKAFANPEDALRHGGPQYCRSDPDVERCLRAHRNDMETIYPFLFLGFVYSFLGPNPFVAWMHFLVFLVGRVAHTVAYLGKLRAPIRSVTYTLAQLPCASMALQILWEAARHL
The experiment is described as follows: Microsomal prostaglandin E synthase biochemical assay. As to conditions: microsome preparation containing human mPGES-1; PGH2 10.8 μM, GSH 2.5 mM, pH 6.8; PGE2 by HTRF; average of at least n=2. The procedure: Compounds were tested as inhibitors of microsomal prostaglandin E synthase activity in microsomal prostaglandin E synthase assays and whole cell assays. These assays measure prostaglandin E2 (PGE2) synthesis which is taken as a measure of prostaglandin E synthase activity. Microsomal prostaglandin E synthase biochemical assays used microsomal prostaglandin E synthase-1 in microsomal preparations. The source of the microsomes can be for example interleukin-1β-stimulated human A549 cells (which express human mPGES-1) or Sf9 cells transfected with plasmids encoding human mPGES-1 cDNA. The whole blood assay [described by Patrignani, P. et al., Journal of Pharmacology and Experimental Therapeutics, 1994, vol. 271, pp 1705-1712] was used as the whole cell assay for testing the compounds. Whole blood provides a protein and cell rich milieu for the study of biochemical efficacy of anti-inflammatory compounds such as prostaglandin synthase inhibitors. To study the inhibitory activities of these compounds, human blood was stimulated with lipopolysaccharide (LPS) for typically 16 hours to induce mPGES-1 expression, after which the concentration of produced PGE2 was measured by competitive-immuno assay (homogeneous time-resolved fluorescence, HTRF) as read out for effectiveness against mPGES-1-dependent PGE2 production.
Microsomal Prostaglandin E Synthase Biochemical Assay
A solution of test compound was added to a diluted microsome preparation containing human mPGES-1 and pre-incubated for 15 minutes in potassium phosphate buffer pH 6.8 with cofactor glutathione (GSH). Corresponding solutions without test compound were used as positive controls, and corresponding solutions without test compound and without microsomes were used as negative controls. The enzymatic reaction was then started by addition of the substrate PGH2 in an organic solution (dry acetonitrile).
The typical reaction conditions of the enzymatic reaction were thus: Test compound: ranging from 60 μM to 0.002 μM, or zero in positive and negative controls; potassium phosphate buffer pH 6.8: 50 mM; GSH: 2.5 mM; mPGES-1-containing microsomes: 2 μg/mL (sample and positive controls) or 0 μg/mL (negative control); PGH2: 10.8 μM; Acetonitrile: 7.7% (v/v); DMSO: 0.6% (v/v). The reaction was stopped after one minute by adding an acidic solution (pH 1.9) of ferric chloride and citrate (final concentrations 7 mM and 47 mM respectively), by which the PGH2 was sequestered (the PGH2 is reduced to mainly 12-hydroxy heptadecatrineoic acid (12-HHT) which is not detected by the subsequent PGE2 detection step). The resulting solution was then pH neutralized by addition of potassium phosphate buffer, prior to diluting an aliquot of the resulting solution in a weak potassium phosphate buffer (50 mM, pH 6.8) containing 0.2% BSA (w/v). [Adapted from Jacobsson et al., Proc. Natl. Acad. Sci. USA, 1999, vol. 96, pp. 7220-7225]The PGE2 formed was quantified by use of a commercial HTRF based kit (catalogue #62PG2PEC or #62P2APEC from Cisbio International). 100% activity was defined as the PGE2 production in positive controls subtracted by the PGE2 production in the negative controls. IC50 values were then determined using standard procedures.
The potency is expressed as IC50 and the value indicated is an average of at least n=2.
On the technique in general: TR-FRET usually uses a lanthanide donor and a delayed reading to cut background.
Usually IC50 stands for the concentration at which inhibition is half-maximal. A lower IC50 goes with greater potency. `NS(=O)(=O)c1ccccc1NS(=O)(=O)/C=C/c1ccc(Br)cc1` [Example 106, 2-[[(E)-2-(4-Bromophenyl)ethenyl]sulfonylamino]benzenesulfonamide] returned an IC50 of 74 nM. As for `NS(=O)(=O)c1cc(-c2ccccc2)ccc1NS(=O)(=O)c1cccc(-c2ccc(Cl)c(Cl)c2)c1` [Example 145, 2-[[3-(3,4-Dichlorophenyl)phenyl]sulfonylamino]-5-phenyl-benzenesulfonamide], the IC50 was 4100 nM. In turn, `CNS(=O)(=O)c1ccccc1NS(=O)(=O)c1cccc(-c2ccc(Cl)c(Cl)c2)c1` [Example 239, 2-[[3-(3,4-Dichlorophenyl)phenyl]sulfonylamino]-N-methyl-benzenesulfonamide] came in with an IC50 of 6060 nM. Take `NS(=O)(=O)c1ccccc1NS(=O)(=O)/C=C/c1ccc(-c2ccco2)cc1` [Example 18, 2-[[(E)-2-[4-(2-Furyl)phenyl]ethenyl]sulfonylamino]benzenesulfonamide]: the IC50 came out at 44 nM. With `COc1ccc(Cl)cc1-c1cccc(S(=O)(=O)Nc2ccccc2S(N)(=O)=O)c1` [Example 115, 3-(5-Chloro-2-methoxy-phenyl)-N-(2-sulfamoylphenyl)benzenesulfonamide], the half-inhibitory concentration (IC50) is 2600 nM. Under `NS(=O)(=O)c1ccccc1NS(=O)(=O)c1cccc(-c2cccc3c2oc2ccccc23)c1` [Example 133, 3-Dibenzofuran-4-yl-N-(2-sulfamoylphenyl)benzenesulfonamide] stands 2200 nM; under `COc1cc(Cl)ccc1CCS(=O)(=O)Nc1cc(C#N)ccc1S(N)(=O)=O` [Example 181, 2-(2-(4-Chloro-2-methoxyphenyl)ethylsulfonamido)-4-cyanobenzenesulfonamide], 370 nM. Under `CC(C)(C)c1ccc(CCS(=O)(=O)Nc2cc(F)ccc2S(N)(=O)=O)cc1` [Example 71, 4-Fluoro-2-[2-(4-tert-butylphenyl)ethylsulfonylamino]benzenesulfonamide] stands 300 nM; under `NS(=O)(=O)c1cc(Oc2ccccc2)ccc1NS(=O)(=O)c1cccc(-c2cccc(OC(F)(F)F)c2)c1` [Example 156, 5-Phenoxy-2-[[3-[3-(trifluoromethoxy)phenyl]phenyl]sulfonylamino]-benzenesulfonamide], 5400 nM.

`NS(=O)(=O)c1cc(F)ccc1NS(=O)(=O)/C=C/c1ccc(OC(F)F)cc1` [Example 42, 2-[[(E)-2-[4-(Difluoromethoxy)phenyl]ethenyl]sulfonylamino]-5-fluoro-benzenesulfonamide] had an IC50 of 1600 nM. Under `NS(=O)(=O)c1ccccc1NS(=O)(=O)c1cccc(-c2ccc3[nH]ccc3c2)c1` [Example 120, 2-[[3-(1H-Indol-5-yl)phenyl]sulfonylamino]benzenesulfonamide] stands 3300 nM; under `NS(=O)(=O)c1ccccc1NS(=O)(=O)c1ccc2c(c1)CCCC2` [Example 126], 1200 nM; under `COc1ccccc1/C=C/S(=O)(=O)Nc1c(F)cccc1S(N)(=O)=O` [Example 60, 3-Fluoro-2-[[(E)-2-(2-methoxyphenyl)ethenyl]sulfonylamino]benzenesulfonamide], 2400 nM. On to `N#Cc1ccc(NS(=O)(=O)CCc2ccc(Cl)c(Cl)c2)c(S(N)(=O)=O)c1` [Example 199, 5-Cyano-2-(2-(3,4-dichlorophenyl)ethylsulfonamido)benzenesulfonamide], for which the midpoint of inhibition, the IC50, lay at 2500 nM. As for `C/C(=C\c1ccc(Cl)cc1)S(=O)(=O)Nc1cccc(F)c1S(N)(=O)=O` [Example 13, 2-[[(E)-1-(4-Chlorophenyl)prop-1-en-2-yl]sulfonylamino]-6-fluoro-benzenesulfonamide], the IC50 was 520 nM. The same measure for `NS(=O)(=O)c1ccccc1NS(=O)(=O)CCc1ccccc1` [Example 74, 2-(Phenethylsulfonylamino)benzenesulfonamide]: 9800 nM. The same measure for `COc1cc(Cl)ccc1CCS(=O)(=O)Nc1cc(Cl)ccc1S(N)(=O)=O` [Example 228, 4-Chloro-2-(2-(4-chloro-2-methoxyphenyl)ethylsulfonamido)benzenesulfonamide]: 130 nM; for `COc1ccccc1/C=C/S(=O)(=O)Nc1ccccc1S(N)(=O)=O` [Example 83, 2-[[(E)-2-(2-Methoxyphenyl)ethenyl]sulfonylamino]benzenesulfonamide]: 430 nM; for `CC(C)(C)C#Cc1ccc(/C=C/S(=O)(=O)Nc2ccccc2S(N)(=O)=O)cc1` [Example 208, (E)-2-(2-(4-(3,3-Dimethylbut-1-ynyl)phenyl)vinylsulfonamido)benzenesulfonamide]: 55 nM. The same measure for `COc1ccc(Br)cc1/C=C/S(=O)(=O)Nc1cccc(F)c1S(N)(=O)=O` [Example 28, 2-[[(E)-2-(5-Bromo-2-methoxy-phenyl)ethenyl]sulfonylamino]-6-fluoro-benzenesulfonamide]: 290 nM; for `N#Cc1ccc(/C=C/S(=O)(=O)Nc2cccc(F)c2S(N)(=O)=O)cc1` [Example 32, 2-[[(E)-2-(4-Cyanophenyl)ethenyl]sulfonylamino]-6-fluoro-benzenesulfonamide]: 5100 nM; for `NS(=O)(=O)c1c(F)cccc1NS(=O)(=O)/C=C/c1ccc(-c2ccccc2)cc1` [Example 50, 2-Fluoro-6-[[(E)-2-(4-phenylphenyl)ethenyl]sulfonylamino]benzenesulfonamide]: 130 nM.

As for `NS(=O)(=O)c1ccccc1NS(=O)(=O)CCc1ccc(OC(F)(F)C(F)F)cc1` [Example 223, 2-(2-(4-(1,1,2,2-tetrafluoroethoxy)phenyl)ethylsulfonamido)benzenesulfonamide], half-maximal inhibition (IC50) required 420 nM. Under `NS(=O)(=O)c1ccccc1NS(=O)(=O)c1cccc(-c2ccc(Cl)cc2Cl)c1` [Example 139, 2-[[3-(2,4-Dichlorophenyl)phenyl]sulfonylamino]benzenesulfonamide] stands 1800 nM; under `CC(C)Oc1ccccc1/C=C/S(=O)(=O)Nc1ccccc1S(N)(=O)=O` [Example 219, (E)-2-(2-(2-isopropoxyphenyl)vinylsulfonamido)benzenesulfonamide], 950 nM. Under `NS(=O)(=O)c1ccc(F)cc1NS(=O)(=O)/C=C/c1ccc2ccccc2c1` [Example 92, 4-Fluoro-2-[[(E)-2-naphthalen-2-ylethenyl]sulfonylamino]benzenesulfonamide] stands 91 nM; under `NS(=O)(=O)c1c(F)cc(F)cc1NS(=O)(=O)CCc1ccc(Cl)c(Cl)c1` [Example 197, 2-(2-(3,4-Dichlorophenyl)ethylsulfonamido)-4,6-difluorobenzenesulfonamide], 640 nM. The same measure for `NS(=O)(=O)c1ccccc1NS(=O)(=O)c1cc(Cl)c(Cl)s1` [Example 160, 4,5-Dichloro-N-(2-sulfamoylphenyl)thiophene-2-sulfonamide]: 1200 nM; for `NS(=O)(=O)c1c(F)cccc1NS(=O)(=O)/C=C/c1ccccc1F` [Example 62, 2-Fluoro-6-[[(E)-2-(2-fluorophenyl)ethenyl]sulfonylamino]benzenesulfonamide]: 2500 nM. Compound `NS(=O)(=O)c1ccccc1NS(=O)(=O)c1ccc(C(F)(F)F)cc1` [Example 131, N-(2-Sulfamoylphenyl)-4-(trifluoromethyl)benzenesulfonamide] gave an IC50 of 6600 nM. For `NS(=O)(=O)c1cc(CO)ccc1NS(=O)(=O)c1cccc(Cl)c1Cl` [Example 153, 2-(2,3-Dichloro-benzenesulfonylamino)-5-hydroxymethyl-benzenesulfonamide], the IC50 is 3200 nM.

For `NS(=O)(=O)c1ccc(Cl)cc1NS(=O)(=O)CCc1ccc(Cl)c(Cl)c1` [Example 231, 4-Chloro-2-(2-(3,4-dichlorophenyl)ethylsulfonamido)benzenesulfonamid], the IC50 was 130 nM.
